Experimental data from ChEMBL document CHEMBL4376850, “1-Benzylpyrrolidine-3-amine-based BuChE inhibitors with anti-aggregating, antioxidant and metal-chelating properties as multifunctional agents against Alzheimer's disease” (Eur J Med Chem, 2020).
The source made the active and inactive calls. No cut-off for these calls is given here.

How the values were obtained:
[1] = Antioxidant activity assessed as increase in total ferric ion reducing activity at 75 uM using FeCl3.H2O and TPTZ incubated for 5 mins by FRAP assay relative to control; type: functional; design: scale not given: the % may be the effect or the level left
[2] = Antioxidant activity assessed as ABTS radical scavenging activity at 75 uM measured after 60 mins by spectrophotometric assay relative to control; type: functional
[3] = Antioxidant activity assessed as increase in total ferric ion reducing activity at 150 uM using FeCl3.H2O and TPTZ incubated for 5 mins by FRAP assay relative to control; type: functional; design: scale not given: the % may be the effect or the level left
[4] = Antioxidant activity assessed as ABTS radical scavenging activity at 30 uM measured after 5 mins by spectrophotometric assay relative to control; type: functional
[5] = Antioxidant activity assessed as ABTS radical scavenging activity at 30 uM measured after 30 mins by spectrophotometric assay relative to control; type: functional
[6] = target: Amyloid-beta precursor protein (Homo sapiens) (UniProt P05067); conditions: at 10 µM
Sequence of Amyloid-beta precursor protein (Homo sapiens) (P05067 whole entry): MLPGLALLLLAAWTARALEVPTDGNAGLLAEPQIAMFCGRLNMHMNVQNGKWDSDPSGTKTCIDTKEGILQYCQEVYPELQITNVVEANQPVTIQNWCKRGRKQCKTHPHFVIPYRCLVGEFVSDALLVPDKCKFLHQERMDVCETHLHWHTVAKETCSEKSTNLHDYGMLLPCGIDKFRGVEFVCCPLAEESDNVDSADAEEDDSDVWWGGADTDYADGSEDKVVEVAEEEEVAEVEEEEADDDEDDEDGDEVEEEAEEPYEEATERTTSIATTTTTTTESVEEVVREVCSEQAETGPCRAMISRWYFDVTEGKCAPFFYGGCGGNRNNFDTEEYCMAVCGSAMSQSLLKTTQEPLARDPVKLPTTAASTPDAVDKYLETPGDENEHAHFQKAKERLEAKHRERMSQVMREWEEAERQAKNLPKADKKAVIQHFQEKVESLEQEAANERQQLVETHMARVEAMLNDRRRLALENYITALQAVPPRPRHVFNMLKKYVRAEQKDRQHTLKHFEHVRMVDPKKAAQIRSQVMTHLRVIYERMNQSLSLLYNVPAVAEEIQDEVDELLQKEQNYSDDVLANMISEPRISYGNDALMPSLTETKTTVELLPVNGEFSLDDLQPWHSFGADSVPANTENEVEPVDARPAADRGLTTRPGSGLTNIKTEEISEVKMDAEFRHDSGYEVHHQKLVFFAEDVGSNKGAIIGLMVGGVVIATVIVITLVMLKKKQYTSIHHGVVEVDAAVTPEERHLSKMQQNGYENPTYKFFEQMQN
Description: Inhibition of amyloid beta (1 to 42) (unknown origin) aggregation at 10 uM expressed in Escherichia coli BL21 (DE3) incubated for 24 hrs by thioflavin T-based fluorometric assay relative to control

[7] = Antioxidant activity assessed as increase in total ferric ion reducing activity at 30 uM using FeCl3.H2O and TPTZ incubated for 30 mins by FRAP assay relative to control; type: functional; design: scale not given: the % may be the effect or the level left
[8] = Antioxidant activity assessed as ABTS radical scavenging activity at 75 uM measured after 30 mins by spectrophotometric assay relative to control; type: functional
[9] = Antioxidant activity assessed as ABTS radical scavenging activity at 30 uM measured after 60 mins by spectrophotometric assay relative to control; type: functional
[10] = Antioxidant activity assessed as ABTS radical scavenging activity at 75 uM measured after 5 mins by spectrophotometric assay relative to control; type: functional
[11] = target: Microtubule-associated protein tau (Homo sapiens) (UniProt P10636); assay: Inhibition of tau aggregation (unknown origin) at 10 uM expressed in Escherichia coli BL21 (DE3) incubated for 24 hrs by thioflavin T-based fluorometric assay relative to control
Sequence of Microtubule-associated protein tau (Homo sapiens) (P10636 whole entry): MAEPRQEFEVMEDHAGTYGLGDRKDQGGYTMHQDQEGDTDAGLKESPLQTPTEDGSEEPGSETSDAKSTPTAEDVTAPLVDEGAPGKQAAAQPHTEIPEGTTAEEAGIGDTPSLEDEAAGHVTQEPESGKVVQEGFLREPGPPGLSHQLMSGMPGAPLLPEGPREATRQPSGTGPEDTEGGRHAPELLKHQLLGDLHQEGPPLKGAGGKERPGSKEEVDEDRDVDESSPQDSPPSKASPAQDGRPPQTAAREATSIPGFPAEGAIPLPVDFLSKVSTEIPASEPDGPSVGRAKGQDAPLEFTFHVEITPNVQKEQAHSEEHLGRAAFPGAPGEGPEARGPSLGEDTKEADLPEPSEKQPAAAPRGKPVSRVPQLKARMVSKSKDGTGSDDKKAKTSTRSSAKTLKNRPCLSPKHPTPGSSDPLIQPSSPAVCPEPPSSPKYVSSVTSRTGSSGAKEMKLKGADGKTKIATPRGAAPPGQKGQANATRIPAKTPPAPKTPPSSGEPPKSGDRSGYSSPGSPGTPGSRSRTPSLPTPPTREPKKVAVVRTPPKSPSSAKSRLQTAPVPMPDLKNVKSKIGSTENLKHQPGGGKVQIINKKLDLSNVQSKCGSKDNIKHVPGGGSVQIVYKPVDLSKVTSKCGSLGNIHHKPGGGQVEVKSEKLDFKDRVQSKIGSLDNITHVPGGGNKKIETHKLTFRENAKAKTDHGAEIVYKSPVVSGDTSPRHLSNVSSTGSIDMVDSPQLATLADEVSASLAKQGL

Cholinesterase [12] = target: T1, Cholinesterase (Equus caballus, UniProt P81908)
T1 sequence (P81908 whole entry): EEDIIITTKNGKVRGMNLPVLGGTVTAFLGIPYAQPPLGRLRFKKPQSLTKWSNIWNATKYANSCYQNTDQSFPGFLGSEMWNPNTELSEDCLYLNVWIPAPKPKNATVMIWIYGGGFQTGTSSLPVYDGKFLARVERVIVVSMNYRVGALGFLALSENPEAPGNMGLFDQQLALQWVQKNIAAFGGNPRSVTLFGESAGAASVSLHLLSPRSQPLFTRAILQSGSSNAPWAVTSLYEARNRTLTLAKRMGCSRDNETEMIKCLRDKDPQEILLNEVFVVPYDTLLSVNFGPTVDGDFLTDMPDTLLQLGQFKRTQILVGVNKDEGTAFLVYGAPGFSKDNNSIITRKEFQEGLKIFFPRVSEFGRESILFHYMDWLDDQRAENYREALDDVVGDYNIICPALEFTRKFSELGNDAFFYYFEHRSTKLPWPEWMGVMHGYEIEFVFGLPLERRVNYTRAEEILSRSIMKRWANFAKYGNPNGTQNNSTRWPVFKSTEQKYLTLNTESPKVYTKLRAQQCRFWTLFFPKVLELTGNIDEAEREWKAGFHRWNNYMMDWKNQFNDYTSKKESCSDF
Description: Inhibition of equine serum BuChE using butyrylthiocholine chloride as substrate pre-incubated for 5 mins followed by substrate addition and measured after 5 mins by Ellman's method

[13] = Antioxidant activity assessed as increase in total ferric ion reducing activity at 75 uM using FeCl3.H2O and TPTZ incubated for 60 mins by FRAP assay relative to control; type: functional; design: scale not given: the % may be the effect or the level left
[14] = Antioxidant activity assessed as ABTS radical scavenging activity at 150 uM measured after 30 mins by spectrophotometric assay relative to control; type: functional
[15] = Antioxidant activity assessed as increase in total ferric ion reducing activity at 30 uM using FeCl3.H2O and TPTZ incubated for 5 mins by FRAP assay relative to control; type: functional; design: scale not given: the % may be the effect or the level left
[16] = Antioxidant activity assessed as ABTS radical scavenging activity at 150 uM measured after 5 mins by spectrophotometric assay relative to control; type: functional
[17] = Antioxidant activity assessed as increase in total ferric ion reducing activity at 75 uM using FeCl3.H2O and TPTZ incubated for 30 mins by FRAP assay relative to control; type: functional; design: scale not given: the % may be the effect or the level left
[18] = Antioxidant activity assessed as increase in total ferric ion reducing activity at 150 uM using FeCl3.H2O and TPTZ incubated for 30 mins by FRAP assay relative to control; type: functional; design: scale not given: the % may be the effect or the level left
Beta-secretase 1 [19] = target: T2, Beta-secretase 1 (Homo sapiens, UniProt P56817); conditions: 50 uM
T2 sequence (P56817 whole entry): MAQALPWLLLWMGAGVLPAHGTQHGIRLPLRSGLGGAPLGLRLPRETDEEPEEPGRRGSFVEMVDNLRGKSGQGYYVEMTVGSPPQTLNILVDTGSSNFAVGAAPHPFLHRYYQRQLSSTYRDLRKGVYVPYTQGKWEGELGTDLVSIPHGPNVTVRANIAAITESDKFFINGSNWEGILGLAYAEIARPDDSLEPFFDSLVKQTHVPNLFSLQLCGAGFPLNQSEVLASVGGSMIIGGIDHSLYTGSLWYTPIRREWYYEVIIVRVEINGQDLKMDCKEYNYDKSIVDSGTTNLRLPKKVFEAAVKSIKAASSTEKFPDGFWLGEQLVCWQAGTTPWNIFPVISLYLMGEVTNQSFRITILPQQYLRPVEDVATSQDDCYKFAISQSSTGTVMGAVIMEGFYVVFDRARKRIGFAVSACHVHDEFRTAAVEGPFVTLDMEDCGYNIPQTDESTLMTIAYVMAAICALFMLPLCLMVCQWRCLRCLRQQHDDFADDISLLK

[20] = Antioxidant activity assessed as ABTS radical scavenging activity at 150 uM measured after 60 mins by spectrophotometric assay relative to control; type: functional
[21] = Antioxidant activity assessed as increase in total ferric ion reducing activity at 30 uM using FeCl3.H2O and TPTZ incubated for 60 mins by FRAP assay relative to control; type: functional; design: scale not given: the % may be the effect or the level left
[22] = target: Acetylcholinesterase (Electrophorus electricus) (UniProt O42275); assay: Inhibition of Electrophorus electricus AChE at 10 uM using acetylthiocholine iodide as substrate preincubated for 5 mins followed by substrate addition and measured after 5 mins by Ellman's method relative to control
Sequence of Acetylcholinesterase (Electrophorus electricus) (O42275 24-633 limits assumed): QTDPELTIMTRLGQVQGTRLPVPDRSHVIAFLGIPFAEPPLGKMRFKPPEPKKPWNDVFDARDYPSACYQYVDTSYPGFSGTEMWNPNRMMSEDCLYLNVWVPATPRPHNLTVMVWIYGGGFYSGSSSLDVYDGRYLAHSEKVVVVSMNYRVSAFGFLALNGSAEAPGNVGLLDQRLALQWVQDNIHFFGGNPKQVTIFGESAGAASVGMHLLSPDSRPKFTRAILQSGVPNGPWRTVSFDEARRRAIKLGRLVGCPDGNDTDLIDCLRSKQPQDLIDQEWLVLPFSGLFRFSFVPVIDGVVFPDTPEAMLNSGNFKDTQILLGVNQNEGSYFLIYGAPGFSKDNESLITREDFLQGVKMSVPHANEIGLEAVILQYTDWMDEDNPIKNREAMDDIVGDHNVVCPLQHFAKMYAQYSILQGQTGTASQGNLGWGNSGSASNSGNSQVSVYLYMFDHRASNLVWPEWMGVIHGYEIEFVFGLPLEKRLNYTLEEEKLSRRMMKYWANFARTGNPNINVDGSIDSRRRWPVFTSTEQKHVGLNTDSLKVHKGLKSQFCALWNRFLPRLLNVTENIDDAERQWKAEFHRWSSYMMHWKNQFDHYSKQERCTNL

[23] = Metal chelating activity assessed as Cu2+-compound complex formation at 50 uM after 30 mins by UV-Visible spectrophotometric method
[24] = Antioxidant activity assessed as increase in total ferric ion reducing activity at 150 uM using FeCl3.H2O and TPTZ incubated for 60 mins by FRAP assay relative to control; type: functional; design: scale not given: the % may be the effect or the level left
[25] = target: Amyloid-beta precursor protein (Homo sapiens) (UniProt P05067); assay: Inhibition of HFIP-pretreated amyloid beta (1 to 42) (unknown origin) aggregation at 10 uM after 48 hrs measured every 3 mins by thioflavin T-based fluorometric assay relative to control
[26] = target: Cholinesterase (Equus caballus) (UniProt P81908); assay: Inhibition of equine serum BuChE at 10 uM using butyrylthiocholine chloride as substrate pre-incubated for 5 mins followed by substrate addition and measured after 5 mins by Ellman's method relative to control
Sequence of Cholinesterase (Equus caballus) (P81908 whole entry): as the sequence (P81908 whole entry) above

Cholinesterase [27] = target: T1, Cholinesterase; assay: Inhibition of equine BuChE
Beta-secretase 1 [28] = target: T2, Beta-secretase 1; assay: Inhibition of BACE1 (unknown origin)
Beta-secretase 1 [29] = target: T2, Beta-secretase 1

Structure (SMILES)	Activity [1] [%]	Activity [2] [%]	Activity [3] [%]	Activity [4] [%]	Activity [5] [%]	inhibition [6] [%]	Activity [7] [%]	Activity [8] [%]	Activity [9] [%]	Activity [10] [%]	inhibition [11] [%]	Activity [13] [%]	Activity [14] [%]	Activity [15] [%]	Activity [16] [%]	Activity [17] [%]	Activity [18] [%]	inhibition (Beta-secretase 1 [19]) [%]	Activity [20] [%]	inhibition [22] [%]	further results
c1ccc(CCC2CCN(CCNC3CCN(Cc4ccccc4)C3)CC2)cc1 (stereo not drawn)	1	33	11	8	12	41	2	24	18	12	67.8	9	29	2	3	6	13	31	45	< 10	IC50 (Cholinesterase [12]): 7.39 µM; Activity [21]: 3%; Activity [23]: Active; Activity [24]: 16%
c1ccc(CC2CCN(CCNC3CCN(Cc4ccccc4)C3)CC2)cc1 (stereo not drawn)	6	27	13	9	12	36.6	2	21	17	11	61	13	43	1	21	11	20	< 10	55	21.2	IC50 (Cholinesterase [12]): 0.62 µM; Activity [21]: 3%; Activity [23]: Active; Activity [24]: 22%
c1ccc(CN2CCC(NCCN3CCN(C(c4ccccc4)c4ccccc4)CC3)C2)cc1 (stereo not drawn)	4	59	19	22	41	31.6	8	52	47	29	64	12	77	4	51	10	21	34.2	84	27.6	inhibition [25]: 27.7%; inhibition [26]: 46.2%; Activity [21]: 11%; Activity [23]: Active; Activity [24]: 25%
O=C(CN1CCC(Cc2ccccc2)CC1)NC1CCN(Cc2ccccc2)C1 (stereo not drawn)	2	14	5	7	9	35	16	12	10	8	66.8	6	20	5	11	5	6	55.6	27	< 10	inhibition [25]: 22.1%; inhibition [26]: 36.1%; Activity [21]: 4%; Activity [24]: 8%
Cc1c(OCc2ccccc2)cccc1N1CCN(CC(=O)NC2CCN(Cc3ccccc3)C2)CC1 (stereo not drawn)																					IC50 (Cholinesterase [27]): 76 µM; IC50 (Beta-secretase 1 [28]): 33 µM; Activity [23]: Active
c1ccc(CN2CCN(CCNC3CCN(Cc4ccccc4)C3)CC2)cc1 (stereo not drawn)	17	58	45	18	36	37.9	13	50	43	26	60.6	30	84	9	54	27	48	13.6	93	< 10	inhibition [25]: 19.2%; inhibition [26]: 36.7%; Activity [21]: 15%; Activity [23]: Active; Activity [24]: 51%
O=C(CN1CCC(C(c2ccccc2)c2ccccc2)CC1)NC1CCN(Cc2ccccc2)C1 (stereo not drawn)						53.3					64.3							52.2		< 10	inhibition [25]: 35.3%; inhibition [26]: 24.6%; IC50 (Beta-secretase 1 [29]): 55.2 µM
c1ccc(CN2CCC(NCCN3CCC(C(c4ccccc4)c4ccccc4)CC3)C2)cc1 (stereo not drawn)						31.7					60.4							54.3		25.2	inhibition [26]: 44.2%; IC50 (Beta-secretase 1 [29]): 49.8 µM
